How the values were obtained:
[1] = test system: other MCF7 cell lines (ESR1 WT, Y537N, ErbB2, EV); settings: 4-OHT 1 μM, 5 days
Procedure: To directly determine the validity of our model system, MCF7-Y537S cells were cultured for 5 days in the presence of Tamoxifen (1 μM) to assess its effect on cell viability. […] MCF7 cells were stably-transduced with either ESR1 (WT, Y537S, or Y537N) or ErbB2 (HER2), to genetically create a clinically relevant model of endocrine therapy resistance. Vector alone control MCF7 cells were generated in parallel (empty vector; EV; p-EV-105-puroR), as a negative control. […] The SRB assay was performed as a measure of cell viability and the experiment was carried out for 5 days.
Sulfo-rhodamine B (SRB) assay: SRB measures total biomass by staining cellular proteins.

MCF7-Y537S cells [2] = assay: SRB survival assay (cell viability), 5-day exposure; format: cell-based, human; settings: 4-OHT 1 μM, 5 days, vs control
Description: For FIG. 1, ** indicates p<0.005.

MCF7-Y537S cells [3] = assay: Mammosphere formation assay; format: cell-based, human; settings: 72-hour pre-treatment with 1 μM, 5 days culture
Procedure: (§1) All of the transfected MCF7 cell lines were grown as mammospheres. […] In these figures, ** indicates p<0.005; and ns indicates not significant as evaluated by Student's t test.
(§2) MCF7 3D-mammosphere formation: A single cell suspension was prepared using enzymatic (lx Trypsin-EDTA, Sigma Aldrich, #T3924), and manual disaggregation (25 gauge needle). Cells were plated at a density of 500 cells/cm^2 in mammosphere medium (DMEM-F12+B27+20 ng/ml EGF+PenStrep) under non-adherent conditions, in culture dishes pre-coated with (2-hydroxyethylmethacrylate) (poly-HEMA, Sigma, #P3932), called “mammosphere plates.” Then, the cells were pre-treated for 72 hours with 1 μM of 4-OH-Tamoxifen. Vehicle alone (DMSO) control cells were processed in parallel. Afterwards, they were trypsined and seeded in mammosphere plates. Cells were grown for 5 days and maintained in a humidified incubator at 37° C. After 5 days of culture, 3D-spheres>50 μm were counted using an eye piece (“graticule”), and the percentage of cells plated which formed spheres was calculated and is referred to as percent mammosphere formation, and was normalized to one (1=100% MSF).

[4] = test system: transfected MCF7 cell lines (other than Y537S and ESR1 WT); assay: Mammosphere formation assay; format: cell-based, human; settings: all transfected MCF7 cell lines except Y537S and ESR1 (WT), 72-hour pre-treatment with 1 μM, 5 days culture
Procedure: as §1, §2

MCF7-Y537S cells [5] = assay: Annexin-V analysis (apoptosis, FACS); format: cell-based, human; settings: 1 μM for 72 hours
Description: (§3) One mechanism by which the Y537S mutation may promote mammosphere formation in the presence of Tamoxifen is by conferring resistance to apoptosis. Staining with annexin V may be used to detect apoptotic cells by its ability to bind to phosphatidylserine, a marker of apoptosis when it is on the outer leaflet of the plasma membrane. Increases in annexin V staining indicates an increase in apoptosis.
(§4) The data in FIGS. 4A-4C were obtained as follows. The transduced MCF7 cell lines were all plated in 6-well plates. On the next day, the cells were treated with 4-OHT (1 μM) for 72 hours. MCF7-EV cells were processed in parallel, as a negative control. […] For the data in these drawings, * indicates p<0.05.
(§5) Annexin-V analysis: Cell death was quantified by flow cytometry using propidium iodide (PI) and Annexin V-FITC (20). Briefly, 1.5×10^5 all the transfected cells were plated in 6 multi-well plate in complete media supplemented with 10% HiFBS. The next day, cells were treated with 1 μM of 4-OH-Tamoxifen (4-OHT) for 48 h and 72 h. Vehicle alone (DMSO) for control cells were processed in parallel. After 48 hours, cells were harvested and washed in cold phosphate-buffered saline (PBS). […] Cells were then analyzed by flow cytometry using a PE Texas Red signal detector for PI staining and a FITC signal detector to detect Annexin V binding. 30,000 events were recorded by FACS using Fortessa BD. […]

[6] = test system: transfected MCF7 cell lines; assay: Annexin-V analysis (apoptosis, FACS); format: cell-based, human; settings: 1 μM for 72 hours
Description: as §3, §4, §5

Question: What does the source list for CC/C(=C(\c1ccc(O)cc1)c1ccc(OCCN(C)C)cc1)c1ccccc1 [4-OHT, 4-OH-Tamoxifen]?
Answer: cell viability (SRB survival) [1]: significant inhibitory effects; cell viability (SRB survival) (MCF7-Y537S cells [2]): clearly show resistance; mammosphere formation (MCF7-Y537S cells [3]): remain largely unaffected; mammosphere formation efficiency (MFE) [4]: inhibited mammosphere formation efficiency; pro-apoptotic effect (annexin V levels) (MCF7-Y537S cells [5]): specifically resistant to the pro-apoptotic effects; annexin V levels [6]: increased in all transfected cell lines

Source: patent US12188936B2, “Biomarkers and therapeutics for endocrine therapy resistance” (LUNELLA BIOTECH, INC., priority 2018, dated 2025)
